Test results published in US20030097221A1, “Detection and characterization of psychoactives using parallel multi-site assays in brain tissue” (priority 2001, published 2003).
“And” between values parts separate entries of the source, which are not always exact repeats. Equal values may be shown once.

Columns and labels:
Type in all cases: cell-based, rat
[1] = system: glutamate receptor-mediated evoked excitatory synaptic transmission, hippocampal slice CA1; assay: Paired-pulse evoked fEPSP in CA1, Schaffer collateral stimulation (assays SC50, SC200), MED64 multi-electrode array; set-up: key to SC 50 ms Amplitude fEPSP 1st, Mean / SC 50 ms Amplitude fEPSP 2nd, Mean / SC 200 ms Widths fEPSP 1st, Mean / SC 200 ms Widths fEPSP 2nd, Mean: fractional change vs. last 5 min of pre-wash-in control phase
Protocol: (§1) A 17-24 day old Sprague Dawley rat was decapitated after anesthesia with halothane (2-bromo-2-chloro-1,1,1-trifluoroethane; Sigma; B4388), and the whole brain was removed. The brain was immediately soaked for ˜2 min in ice-cold, oxygenated preparation buffer of the following composition (in mM): 124 NaCl, 26 NaHCO3, 10 glucose, 3 KCl, 1.25 NaH2PO4, 2 CaCl2, and 2 MgSO4. Appropriate portions of the brain were trimmed and placed on the ice-cold stage of a vibrating tissue slicer (Leica, Nussloch, Germany; VT-1000S). The stage was immediately filled with both oxygenated and frozen preparation buffers. The thickness of each tissue slice was 350 μm. Each slice was gently taken off the blade, and immediately soaked in the oxygenated artificial cerebrospinal fluid (ACSF) for at least 1 hr at room temperature. Then a slice was placed on the center of the MED probe. The slice was positioned to cover the 8×8 array. After positioning the slice, the MED probe was immediately placed in a box filled with 95% O2 and 5% CO2.
During recording, the slices were continuously perfused with a solution of the following composition: ACSF (in mM): 124 NaCl, 26 NaHCO3, 10 glucose, 3 KCl, 1.25 kH2PO4, 2 CaCl2, 1 MgSO4. All compounds were bath applied at known concentrations and were prepared daily from frozen aliquots. Compounds were purchased from Sigma. Ampakines (CX516, CX546, CX554) were made fresh everyday, and used at concentrations: CX516, 250 μM; CX546, 250 μM; and CX554, 30 μM.
Baseline, application, and recovery time was usually at 10, 20, and 30 min respectively.
During electrophysiological recording, the slices on the MED probe were placed in a small CO2 incubator (Asahi Lifescience; model 4020) at 32° C. The slices were placed on an interface, and a moisturized with a 95% O2 and 5% CO2 gas mixture.
Evoked field potentials at all 64 sites (minus stimulation sites) were recorded simultaneously with the multichannel recording system (Panasonic: MED64 system) at a 20 kHz sampling rate. In the case of the evoked response, one of the planar microelectrodes out of the 64 available was used for the stimulating cathode. Bipolar constant-current pulses (10-50 μA; 0.1 ms) were produced by the data acquisition software via the isolator. The stimulating microelectrode was selected by the 64-switch box.
All assays employ paired-pulse stimulation at various rat hippocampal sites to elicit evoked responses. The resulting field EPSP recordings were analyzed using Matlab software (The MathWorks, Inc.) by computing several response measures such as amplitude, halfwidth, and negative area, which apply to both the first and second evoked reponses. Amplitude was defined as the maximum depolarization magnitude relative to the average baseline reading prior to the first stimulation pulse. Halfwidth was defined as the duration of the depolarization phase of the evoked response at half its maximum amplitude value. Negative area was obtained by taking the magnitude of the integral of the evoked response curve over all segments with the same polarity as the depolarization phase. This integral spans a time window of 25 msec beginning one msec after the stimulation pulse.
Amplitudes and halfwidths for both first and second elicited responses were computed for assays SC50, SC200, and CA3-1—50. For DG50 only first and second amplitudes were computed. Negative areas for first and second responses were computed for SC50, SC200, CA3-1—50, and MF50.
All response paramters were utilized to quantify candidate sample composition effects on the hippocampus. For a given response parameter, the candidate sample composition effect was defined as the percent change of the average measure during the last five minutes of the wash-in phase with respect to the average measure of the last five minutes of the preceding, pre-wash-in control phase. […]

[2] = system: glutamate receptor-mediated evoked excitatory synaptic transmission, hippocampal slice dentate gyrus; assay: Paired-pulse evoked fEPSP in dentate gyrus (assay DG50), MED64; conditions: 250 μM; 50 ms inter-pulse delay
Protocol: as §1, with “CO2. […]” for “CO2.”
(§2) Evoked field potentials at all 64 sites (minus stimulation sites) were recorded simultaneously with the multichannel recording system (Panasonic: MED64 system) at a 20 kHz sampling rate. […]
(§3) All assays employ paired-pulse stimulation at various rat hippocampal sites to elicit evoked responses. The resulting field EPSP recordings were analyzed using Matlab software (The MathWorks, Inc.) by computing several response measures such as amplitude, halfwidth, and negative area, which apply to both the first and second evoked reponses. Amplitude was defined as the maximum depolarization magnitude relative to the average baseline reading prior to the first stimulation pulse. […]
The polarity of the evoked responses for assay DG50 was reversed before analysis because of the inverted voltage values recorded by the DG50 electrode. Assays SC50, SC200, MF50, and CA3-1—50, however, were analyzed without such a reversal. […]
(§4) All response paramters were utilized to quantify candidate sample composition effects on the hippocampus. […]

[3] = system: glutamate receptor-mediated evoked excitatory synaptic transmission, hippocampal slice mossy fibers; assay: Paired-pulse evoked fEPSP, mossy fibers (assay MF50), MED64; conditions: 250 μM; 50 ms inter-pulse delay
Protocol: A 17-24 day old Sprague Dawley rat was decapitated after anesthesia with halothane (2-bromo-2-chloro-1,1,1-trifluoroethane; Sigma; B4388), and the whole brain was removed. The brain was immediately soaked for ˜2 min in ice-cold, oxygenated preparation buffer of the following composition (in mM): 124 NaCl, 26 NaHCO3, 10 glucose, 3 KCl, 1.25 NaH2PO4, 2 CaCl2, and 2 MgSO4. Appropriate portions of the brain were trimmed and placed on the ice-cold stage of a vibrating tissue slicer (Leica, Nussloch, Germany; VT-1000S). The stage was immediately filled with both oxygenated and frozen preparation buffers. The thickness of each tissue slice was 350 μm. […]
as §2, §3

[4] = system: hippocampal slice regions (CA1, DG, MF); assay: Comparison between regions of the slice, area under the curve for all 4 assays (FIG. 9); conditions: prediction drawn from the results of FIG. 9
Protocol: All assays employ paired-pulse stimulation at various rat hippocampal sites to elicit evoked responses. The resulting field EPSP recordings were analyzed using Matlab software (The MathWorks, Inc.) by computing several response measures such as amplitude, halfwidth, and negative area, which apply to both the first and second evoked reponses. Amplitude was defined as the maximum depolarization magnitude relative to the average baseline reading prior to the first stimulation pulse. Halfwidth was defined as the duration of the depolarization phase of the evoked response at half its maximum amplitude value. Negative area was obtained by taking the magnitude of the integral of the evoked response curve over all segments with the same polarity as the depolarization phase. This integral spans a time window of 25 msec beginning one msec after the stimulation pulse. […]
as §4
To compare the response of tissue slices to candidate sample compositions between different regions of the slice, the area under the curve for all 4 assays was calculated.
To compare the effect of compounds in candidate sample compositions between different regions of a tissue slice, the area under the curve for all 4 assays was calculated. […]

[5] = CX516 250 μM, individual slice files, normalized change over control
[6] = CX516 250 μM, n = 4, normalized change over control

Structure (SMILES): O=C(c1ccc2nccnc2c1)N1CCCCC1 [CX516, 1-(Quinoxalin-6-ylcarbonyl)piperidine]
- amplitude of both responses in CA1 ([1]; 250 μM, 50 ms or 200 ms delay between stimulation pulses): increase in the amplitude
- effect on half-width of both responses ([1]; 250 μM, summary of Table 1): no effect
- increase of the amplitude of first and second fEPSP ([1]; 250 μM, summary of Table 1): 15-17%
- SC 50 ms Amplitude fEPSP 1st [1, 5]: 0.276 and 0.211 and 0.087 and 0.110
- SC 50 ms Amplitude fEPSP 2nd [1, 5]: 0.246 and 0.192 and 0.044 and 0.085
- SC 50 ms Widths fEPSP 1st [1, 5]: 0.020 and −0.023 and 0.063 and 0.007
- SC 50 ms Widths fEPSP 2nd [1, 5]: −0.001 and 0.017 and 0.045 and 0.026
- SC 200 ms Amplitude fEPSP 1st [1, 5]: 0.260 and 0.206 and 0.093 and 0.114
- SC 200 ms Amplitude fEPSP 2nd [1, 5]: 0.258 and 0.194 and 0.067 and 0.085
- SC 200 ms Widths fEPSP 1st [1, 5]: 0.036 and −0.024 and 0.051 and −0.002
- SC 200 ms Widths fEPSP 2nd [1, 5]: 0.035 and 0.001 and 0.049 and 0.037
- SC 50 ms Amplitude fEPSP 1st, Change over Control (%) ([1]; CX516 250 μM, n = 4): 17.108%
- SC 50 ms Amplitude fEPSP 2nd, Change over Control (%) ([1]; CX516 250 μM, n = 4): 14.178%
- SC 50 ms Widths fEPSP 1st, Change over Control (%) ([1]; CX516 250 μM, n = 4): 1.658%
- SC 50 ms Widths fEPSP 2nd, Change over Control (%) ([1]; CX516 250 μM, n = 4): 2.168%
- SC 200 ms Amplitude fEPSP 1st, Change over Control (%) ([1]; CX516 250 μM, n = 4): 16.825%
- SC 200 ms Amplitude fEPSP 2nd, Change over Control (%) ([1]; CX516 250 μM, n = 4): 15.088%
- SC 200 ms Widths fEPSP 1st, Change over Control (%) ([1]; CX516 250 μM, n = 4): 1.525%
- SC 200 ms Widths fEPSP 2nd, Change over Control (%) ([1]; CX516 250 μM, n = 4): 3.055%
- SC 50 ms Amplitude fEPSP 1st, Mean [1, 6]: 0.171
- SC 50 ms Amplitude fEPSP 2nd, Mean [1, 6]: 0.142
- SC 50 ms Widths fEPSP 1st, Mean [1, 6]: 0.017
- SC 50 ms Widths fEPSP 2nd, Mean [1, 6]: 0.022
- SC 200 ms Amplitude fEPSP 1st, Mean [1, 6]: 0.168
- SC 200 ms Amplitude fEPSP 2nd, Mean [1, 6]: 0.151
- SC 200 ms Widths fEPSP 1st, Mean [1, 6]: 0.015
- SC 200 ms Widths fEPSP 2nd, Mean [1, 6]: 0.031
- kind of modulation of the responses in CA1 (halfwidth vs amplitude) ([1]; CX516, CX546 250 μM, CX554 30 μM): amplitude only modulation
- responses recorded in dentate gyrus (amplitude) [2]: increase
- mossy fibers' response (area) [3]: increase
- degree to which ampakines enhance activation of interneurons (rank order) [4]: CX554>CX546>CX516
